Experimental data taken from ChEMBL document CHEMBL1127417, “Multisubstrate inhibition of 4-hydroxybenzoate 3-monooxygenase” (J Med Chem, 1994).

How the values were obtained:
[1] = target: T1, p-hydroxybenzoate hydroxylase (Pseudomonas fluorescens, UniProt P00438); experiment: Binding affinity against p-hydroxybenzoate hydroxylase (PHBH) from Pseudomonas fluorescence competing with NADPH
[2] = target: T1, p-hydroxybenzoate hydroxylase; experiment: Binding affinity against p-hydroxybenzoate hydroxylase (PHBH) from Pseudomonas fluorescence competing with p-hydroxy benzoic acid
[3] = target: T1, p-hydroxybenzoate hydroxylase; experiment: Inhibitory concentration against p-hydroxybenzoate hydroxylase (PHBH) from Pseudomonas fluorescence

T1 sequence (P00438 whole entry): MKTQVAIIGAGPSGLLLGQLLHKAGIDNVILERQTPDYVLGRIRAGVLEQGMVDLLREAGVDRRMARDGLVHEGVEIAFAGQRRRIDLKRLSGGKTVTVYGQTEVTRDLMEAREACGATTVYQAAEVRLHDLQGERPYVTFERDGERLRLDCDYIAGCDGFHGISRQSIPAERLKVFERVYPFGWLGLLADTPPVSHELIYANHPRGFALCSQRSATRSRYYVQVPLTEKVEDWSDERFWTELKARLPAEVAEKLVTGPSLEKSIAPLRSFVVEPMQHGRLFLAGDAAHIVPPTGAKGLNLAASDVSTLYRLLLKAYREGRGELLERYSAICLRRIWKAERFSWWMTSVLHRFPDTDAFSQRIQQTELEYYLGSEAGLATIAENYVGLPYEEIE

Ki [1] | Ki [2] | IC50 [3] | SMILES
69 nM | 59 nM | – | O=C(O)c1ccc(O)cc1OCc1ccccc1
– | – | 100000 nM | O=C(O)c1ccc(O)c(OCc2ccccc2)c1
